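Dose response: 5 concentrations. Exposure: 48 h. Format: 96-well plates. Endpoint: linear interpolation; highest concentration if not reached. Here, GI50 denotes the concentration required for 50% inhibition of growth. TGI denotes the concentration required for complete inhibition of growth.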
Key:
Assay in all cases: growth of human tumour cells (NCI), 48 h
HOP-92 NSCLC = system: HOP-92 NSCLC
HS 578T breast = system: HS 578T breast
IGROV1 ovarian = system: IGROV1 ovarian
K-562 leukemia = system: K-562 leukemia
LOX IMVI melanoma = system: LOX IMVI melanoma
MCF7 breast = system: MCF7 breast
MOLT-4 leukemia = system: MOLT-4 leukemia
SF-268 CNS = system: SF-268 CNS

SMILES | GI50 (HOP-92 NSCLC) [µM] | TGI (HOP-92 NSCLC) [µM] | GI50 (HS 578T breast) [µM] | TGI (HS 578T breast) [µM] | GI50 (IGROV1 ovarian) [µM] | TGI (IGROV1 ovarian) [µM] | GI50 (K-562 leukemia) [µM] | TGI (K-562 leukemia) [µM] | GI50 (LOX IMVI melanoma) [µM] | TGI (LOX IMVI melanoma) [µM] | GI50 (MCF7 breast) [µM] | TGI (MCF7 breast) [µM] | GI50 (MOLT-4 leukemia) [µM] | TGI (MOLT-4 leukemia) [µM] | GI50 (SF-268 CNS) [µM] | TGI (SF-268 CNS) [µM]
O=C1/C(=C/c2ccccc2[N+](=O)[O-])Cc2ccccc21 | 1.22 | 3.36 | 3.7 | > 100 | 1.25 | 8.59 | 3.4 | > 100 | 1.88 | 4.39 | 1.38 | 11.8 | 2.92 | 9.04 | 3.1 | 29.6
N#CC(=C1C=CC(=NO)C=C1)c1ccc(Cl)cc1 |  | 44.8 |  |  |  | 56.1 |  |  |  | 12 |  |  |  | 39.5 |  | 48
O=C1C(=C([O-])c2ccccc2)C(=O)c2ccccc21.O=C1C(=C([O-])c2ccccc2)C(=O)c2ccccc21.[Fe+2] | 16.1 | 38.6 |  |  | > 100 | > 100 | 84.9 | > 100 | 6.33 | 23.6 |  |  | > 100 | > 100 | > 100 | > 100
OCc1ccc(N2CCCC2c2ccccc2)cc1Cl (configuration not stated) | 2.06 | 9.28 | 7.4 | 30.8 | 0.187 | 0.813 | 2.33 | 10.6 | 9.67 | 22.5 | 1.42 | 13.2 | 4.75 | 24.9 | 13.2 | 49.5
CN1CCN(C(=O)c2cc(-c3ccc4ncnc(N5CCc6cc(F)c(Cl)cc65)c4c3)cnc2N)CC1 | 0.154 | 1.08 | 0.116 | 0.491 | 0.0467 | 0.595 | 0.234 | 11.7 | 0.192 | 1.44 | 0.0992 | 1.89 | 0.127 | 0.664 | 0.216 | 2.32
COc1cc2c(cc1OCCCn1c(-c3ccccn3)nc3ccccc31)N=C[C@@H]1CCCN1C2=O | 3.87 | 26.6 |  |  | 1.96 | 4.89 | 12.2 | > 55.3 | 1.71 | 6.16 | 0.632 | 3.47 | 4.38 | > 28.6 | 3.07 | 9.79
O=C1c2cccnc2C(=O)c2c1c(C(=O)NCCCN1CCCCC1)c1ccccn21 | 2.33 | 4.9 | 2.59 | 9.75 | 1.23 | 3.62 | 1.22 | > 100 | 0.49 | 2.03 |  |  | 0.867 | > 100 | 1.25 | 8.3
FC(F)(F)c1ccc(-c2cnc(-c3ncon3)nc2NC2CCCCCC2)cc1 |  |  | 32.1 | > 100 | 52.5 | > 100 | 34.8 | > 100 |  |  | 31.6 | > 100 | 19.8 | 55 | 64 | > 100
CCCCCCCCCCCCCCCCCC[n+]1ccc2c(C)c3c(c(C)c2c1)c1cc(O)ccc1n3CC | 1.64 | 5.68 | 2.23 | 7.79 |  |  | 1.1 | 9.13 | 2.73 | 10.3 | 2.75 | 17.1 | 2.53 | 14.9 | 1.95 | 5.11
O=C(/C=C\c1cccc([N+](=O)[O-])c1)/C=C/c1cccc([N+](=O)[O-])c1 | 9.92 | 43.9 |  |  | 2.44 | 6.3 |  |  | 1.73 | 4.56 | 0.655 | 6.68 |  |  | 3.08 | 9.89
CC(=O)OC12C=C(C)C(C(C)C1)C1C(=O)N(CCN3CCOCC3)C(=O)C12 (configuration not stated) | > 100 | > 100 | > 100 | > 100 | > 100 | > 100 | > 100 | > 100 | > 100 | > 100 |  |  | > 100 | > 100 | > 100 | > 100
COc1cc2c3c(n(C)c(=O)c2cc1OC)-c1cc2c(cc1/C3=C\CCCCN1C(=O)c3ccccc3C1=O)OCO2 |  | 7.49 | 26.5 | > 100 |  |  | 23.4 | > 100 | 10.7 | 22.5 | 10.8 | 53.9 | 2.07 | 13.4 | 9.12 | > 100
COc1ccc2cc1Oc1ccc(cc1)C[C@H]1c3c(cc4c(c3Oc3cc5c(cc3OC)CCN(C)[C@@H]5C2)OCO4)CCN1C | 1.3 | 11.8 | 7.76 | 46.2 | 5.42 | 12.9 |  |  | 0.702 | 1.52 | 1.85 | 7.4 | 3.92 | 12.9 | 5.09 | 11.5
CN=c1ccc2nc3ccc(N)cc3sc-2c1 |  |  | 17 | 59.6 | 2.54 | 6.24 | 1.12 | 16.7 | 1.87 | 9.58 | 1.63 | 6.5 | 1.77 | 6.86 | 2.84 | 17.1
CN(C)CCCn1c(=O)c2ccccc2c2ccccc21 | 17.9 | 67.2 | 17.8 | 49 |  |  | 21.8 | > 100 | 5.13 | 44 | 7.24 | > 100 | 6.46 | > 100 | 15.6 | 41.4
O=c1[nH]c(=O)n(C2CC(O)C(COP(=O)(OCc3ccc([N+](=O)[O-])o3)N(CCCCCl)CC(O)CO)O2)cc1F (configuration not stated) | 0.156 |  | 0.824 | > 100 |  |  | 3.14 | > 100 | < 0.0226 | > 100 | < 0.01 | > 100 | 0.285 | > 100 |  | > 100
CO/N=C(\COc1ccc2c(c1)[nH]c1ccccc12)c1ccc(F)cc1 | 13.7 | 55.2 | 23.4 | > 100 | 77.3 | > 100 |  |  | > 100 | > 100 | > 100 | > 100 |  |  | > 100 | > 100
